# From US20150252013A1, “TREATMENT OF MULTIPLE SCLEROSIS AND PSORIASIS USING PRODRUGS OF METHYL HYDROGEN FUMARATE” (XenoPort, Inc., priority 2012, published 2015)
# Counter-ions that a name gives are not always drawn. Like-named read-outs stand apart in the source and are kept apart here.
# What was measured:
# rat stomach = test: Gastrointestinal irritation evaluation in rats (Annamalai-Ma gastrointestinal irritation rat model); type: in vivo; conditions: average stomach score (0-5 scale, Table 1) from at least 5 rats; oral, once per day for 4 consecutive days
# Procedure: In order to assess gastrointestinal irritation using this model, rats are treated orally with either vehicle or the MHF prodrug to be tested (n=10 per group) at 180 mg-equivalents MHF/kg of animal body weight, dosed once per day for 4 days, followed by necropsy and gastrointestinal evaluation at 24 hrs after the final dose. Evans Blue dye is injected IV (tail vein) to visually emphasize any lesions in the gastrointestinal tissue.
# Rats were dosed once per day for 4 consecutive days with 180 mg-equivalents MHF/kg body weight per day of a number of MHF prodrugs. The animals were fasted overnight prior to necropsy. On Day 5, to help visualize lesions, 1 mL of 1% Evan's blue in saline was injected into the tail vein 30 minutes prior to euthanasia. All animals were euthanized by inhalation of carbon dioxide. A partial necropsy, limited to the abdominal cavities, was performed. The stomach and small intestine were removed. Residual material was washed away, using an irrigation syringe filled with saline. The stomach was cut along the larger curvature and washed gently with normal saline, and was examined for any lesions. The stomachs were scored in accordance with the scoring system outlined in Table 1. The stomach scores from at least 5 rats were used to calculate an average gastrointestinal irritation score, which scores are reported in Table 2.
# [1] = Toxicokinetics at steady state in monkeys; type: in vivo, monkey
# Procedure: (§1) Gastrointestinal toxicity was assessed by gross necropsy and histopathology. Toxicokinetics were assessed at steady state in parallel cohorts.
# [2] = MHF and intact prodrug blood levels in the mouse efficacy studies (LC/MS/MS); type: in vivo; conditions: oral dosing
# Procedure: (§2) C57BL/6 mice (6 females) were injected subcutaneously with MOG35-55 peptide in CFA with Mycobacterium tuberculosis. Pertussis toxin ([…]) was injected IV on Day 0 and Day 2 post-immunization. Animals received oral XP23829 or DMF (90 mg-eq MHF/kg twice daily) or vehicle on Days 3 to 29. Daily EAE clinical disease scores (5 point scale) were recorded. End of study MHF blood levels were determined by LC/MS/MS.
# [3] = test system: GST activity in the forestomach tissue of rats; test: Glutathione S transferase (GST) activity of the cytosolic extracts of rat forestomach after oral dosing; type: in vivo; conditions: rat forestomach cytosol; oral gavage 180 mg-equivalents of MMF/kg once per day for 14 days; relative to DMF
# Procedure: wherein SARprodrug is the ratio of (i) the GST activity in the forestomach tissue of rats treated with the MMF prodrug (GSTAprodrug) to (ii) the GST activity in the forestomach tissue of rats treated with a non-irritating control solution comprised of 0.5 wt % methylcellulose and 0.1 wt % Tween 80 in 10 mM sodium acetate buffer, pH 4.5 (GSTAcontrol); and SARDMF is the ratio of (i) the GST activity in the forestomach tissue of rats treated with DMF (GSTADMF) to (ii) the GST activity in the forestomach tissue of rats treated with a non-irritating control solution comprised of 0.5 wt % methylcellulose and 0.1 wt % Tween 80 in 10 mM sodium acetate buffer, pH 4.5 (GSTAcontrol). The SARprodrug is proportional to the amount of GST isozymes induced by the MMF prodrug treatment while the SARDMF is proportional to the amount of GST isozymes induced by DMF prodrug treatment. A detailed description of how to determine the GSTArel is provided in Example 1 herein. […]
# Total cytosolic GST activity is determined by measuring the conjugation of 1-chloro-2,4-dinitrobenzene (CDNB) with reduced glutathione. […] The formation of the conjugate is monitored spectrophotometrically by measuring the rate of increase in absorbance at 340 nm over a period of 3 minutes. The rate of increase is measured in μmole/min production of GST-CDNB and is directly proportional to the GST activity in the sample. […]
# [4] = Toxicokinetics at steady state in rats; type: in vivo, rat
# Procedure: as §1
# CD rats [5] = test: 4-week GLP toxicity study in rats, gastrointestinal toxicity by gross necropsy and histopathology; conditions: 500 mg/kg/day for 4 weeks
# Procedure: (§3) (N,N-diethylcarbamoyl)methyl methyl (2E)but-2-ene-1,4-dioate was administered to CD rats (10/sex/dose) at 0 (vehicle), 150, 250, or 500 mg/kg/day and monkeys (3/sex/group) at 0 (vehicle), 25, 75, or 200 mg/kg/day for 4 weeks in GLP toxicity studies. In parallel studies, DMF was administered at doses intended to deliver similar MHF exposures: in rats (10/sex/dose) at 90, 150, and 300 mg/kg/day and monkeys (3/sex/group) at 0 (vehicle), 40, 90, or 250 mg/kg/day for 4 weeks. Gastrointestinal toxicity was assessed by gross necropsy and histopathology.
# C57BL/6 mice = test: MOG35-55 mouse EAE model of multiple sclerosis; type: in vivo; conditions: oral 90 mg-eq MHF/kg twice daily, Days 3 to 29
# Procedure: as §2
# Balb/c mice = test: Imiquimod (IMQ) mouse model of psoriasis; type: in vivo; conditions: Day -5 to Day 5
# Text: Balb/c mice (10 males/group) received daily topical IMQ (5% cream) on shaved back and right ear for 5 days. […] Erythema score was the primary outcome measure.
# CD rats [6] = conditions: rat, in vivo, 300 mg/kg/day
# Procedure: as §3
# monkeys = test: 4-week GLP toxicity study in monkeys, gastrointestinal toxicity by gross necropsy and histopathology
# Procedure: as §3
melting point,SMILES,GI Irritation Score (180 mg-eq of MHF/kg) (rat stomach),further results
–,"COC(=O)/C=C/C(=O)OCCCN1CCOCC1 [Methyl 3-morpholin-4-ylpropyl (2E)but-2-ene-1,4-dioate]",0.0,–
–,"CCN(CC)C(=O)COC(=O)/C=C/C(=O)OC [(N,N-Diethylcarbamoyl)methyl methyl (2E)but-2-ene-1,4-dioate]",1.4,conversion to MHF after absorption [1]: converted rapidly to MHF; prodrug in the systemic circulation [1]: not detected; intact prodrug in the systemic blood [2]: not detected; relative GST enzyme activity (GSTArel) [3]: less than 80%; conversion to MHF after absorption [4]: converted rapidly to MHF; prodrug in the systemic circulation [4]: not detected; MHF exposure compared with DMF at 300 mg/kg/day ([4]; 500 mg/kg/day): identical; glandular stomach findings (CD rats [5]): no adverse effects on glandular stomach; reduction in EAE clinical score (Day 29 and overall AUC) compared to vehicle (C57BL/6 mice): significant reduction; effect versus control in IMQ model (erythema score primary outcome) (Balb/c mice; oral 90 mg-eq/kg twice daily): significant
92.1 °C,"CCN(C(=O)COC(=O)/C=C/C(=O)OC)C1CC1 [(N-cyclopropyl-N-ethylcarbamoyl)methyl methyl 2(E)but-2-ene-1,4-dioate]",1.0,–
–,COC(=O)/C=C/C(=O)OC [Dimethyl Fumarate],4.6,"glandular stomach findings (CD rats [6]): ulceration, necrosis and loss of mucosa of glandular stomach; gastric mucosal hyperplasia (histopathology) compared to (N,N-diethylcarbamoyl)methyl methyl (2E)but-2-ene-1,4-dioate (monkeys; monkeys, 4 weeks): greater gastric mucosal hyperplasia; gastrointestinal irritation after 4 weeks of dosing (monkeys; monkeys, 40, 90 or 250 mg/kg/day): dose dependent gastrointestinal irritation; mortality (monkeys; monkeys, high dose, 4 weeks): One high dose DMF monkey died from gastric ulceration; reduction in EAE clinical score (Day 29 and overall AUC) compared to vehicle (C57BL/6 mice): not statistically significant; effect versus control in IMQ model (erythema score primary outcome) (Balb/c mice; oral 45 or 90 mg-eq MMF/kg twice daily (either dose)): not significant"
–,"COC(=O)/C=C/C(=O)OCCN1CCOCC1 [Methyl 2-morpholin-4-ylethyl (2E)but-2-ene-1,4-dioate]",0.0,–
–,"COC(=O)/C=C/C(=O)OCCCCN1CCOCC1 [Methyl 4-morpholin-4-ylbutyl (2E)but-2-ene-1,4-dioate]",0.6,–
102.1 °C,"COC(=O)/C=C/C(=O)OCC(=O)N1CCCC1 [Methyl 2-oxo-2-pyrrolidinylethyl 2(E)but-2-ene-1,4-dioate]",3.0,–
–,"COC(=O)/C=C/C(=O)OCCCCCCN1CCOCC1 [Methyl 6-morpholin-4-ylhexyl (2E)but-2-ene-1,4-dioate]",0.0,–
93.6 °C,"COC(=O)/C=C/C(=O)OCC(=O)N(C)C1CC1 [(N-cyclopropyl-N-methylcarbamoyl)methyl methyl 2(E)but-2-ene-1,4-dioate]",2.6,–
124 to 126 °C,"COC(=O)/C=C/C(=O)OCC(=O)N1CCOCC1 [Methyl 2-morpholin-4-yl-2-oxoethyl (2E)but-2-ene-1,4-dioate]",2.9,–
–,"COC(=O)/C=C/C(=O)OCC(=O)N(C)C [(N,N-Dimethylcarbamoyl)methyl methyl (2E)but-2-ene-1,4-dioate]",2.4,–
–,"COC(=O)/C=C/C(=O)OCCCCCN1CCOCC1 [Methyl 5-morpholin-4-ylpentyl (2E)but-2-ene-1,4-dioate]",0.0,–
